Data as given in PubChem BioAssay (NCI).
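Briefly, cells in 96-well plates were exposed to five compound concentrations for 48 h, and endpoints were estimated by linear interpolation. Definition used: TGI = concentration required for complete inhibition of growth.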

How the values were obtained:
Assay in all cases: DTP human tumour cell line panel, 48 h
SF-539 CNS = test system: SF-539 CNS
SN12C renal = test system: SN12C renal
UACC-62 melanoma = test system: UACC-62 melanoma
IGROV1 ovarian = test system: IGROV1 ovarian
LOX IMVI melanoma = test system: LOX IMVI melanoma
MOLT-4 leukemia = test system: MOLT-4 leukemia
SK-MEL-2 melanoma = test system: SK-MEL-2 melanoma
NCI/ADR-RES ovarian = test system: NCI/ADR-RES ovarian
HOP-62 NSCLC = test system: HOP-62 NSCLC
UO-31 renal = test system: UO-31 renal
RXF 393 renal = test system: RXF 393 renal
CCRF-CEM leukemia = test system: CCRF-CEM leukemia
OVCAR-8 ovarian = test system: OVCAR-8 ovarian
HL-60(TB) leukemia = test system: HL-60(TB) leukemia
HS 578T breast = test system: HS 578T breast

| Compound | TGI (SF-539 CNS) [µM] | TGI (SN12C renal) [µM] | TGI (UACC-62 melanoma) [µM] | TGI (IGROV1 ovarian) [µM] | TGI (LOX IMVI melanoma) [µM] | TGI (MOLT-4 leukemia) [µM] | TGI (SK-MEL-2 melanoma) [µM] | TGI (NCI/ADR-RES ovarian) [µM] | TGI (HOP-62 NSCLC) [µM] | TGI (UO-31 renal) [µM] | TGI (RXF 393 renal) [µM] | TGI (CCRF-CEM leukemia) [µM] | TGI (OVCAR-8 ovarian) [µM] | TGI (HL-60(TB) leukemia) [µM] | TGI (HS 578T breast) [µM] |
| --- | --- | --- | --- | --- | --- | --- | --- | --- | --- | --- | --- | --- | --- | --- | --- |
| O=C1O[C@H]2C3C4CCC(C4[C@@H]2I)[C@H]13 (stereo partly drawn) | > 100 | > 100 | > 100 | > 100 | > 100 | > 100 | > 100 | > 100 | > 100 | > 100 | > 100 | > 100 | > 100 | > 100 | > 100 |
| C[C@]12CC[C@H](O)CC1=CC[C@@H]1[C@@H]2CC[C@]2(C)C(=O)/C(=C/c3ccc([N+](=O)[O-])cc3)C[C@@H]12 | 20.9 | 33 | > 100 | 21.8 | 22.5 | > 100 | 36.5 | 61.1 | 17 | 28 | 25 | > 100 | 12.3 | > 100 | 29.5 |
| N#Cc1c(N2CCCC2)nsc1Nc1ccc(F)cc1 | > 100 | > 100 | > 100 | > 100 | > 100 | > 100 | > 100 | > 100 | > 100 |  | > 100 | > 100 | > 100 | > 100 | > 100 |
| O=c1c2cc(I)ccc2nc(SCc2nnco2)n1Cc1ccccc1 | > 100 | > 100 | > 100 | > 100 | > 100 | 47.4 | > 100 | > 100 | > 100 | 2.87 | > 100 | 62.9 | > 100 | 35.4 | > 100 |
| CC(=O)c1ccc2c3c1O[C@H]1c4[nH]c5ccccc5c4C[C@@]4(O)[C@@H](C2)N(CC2CC2)CC[C@]314 | 29.3 | 34.4 | 30.7 | 30.1 | 33 | 47.6 | 30.9 | 26.6 | 36.5 | 28.7 | 27.3 | 28.2 | 27.8 | 37 | 15.2 |
| CC1C(C#N)(C#N)C(C#N)=C(N)C1(C)[N+](=O)[O-] (stereo not drawn) | > 100 | > 100 | > 100 | > 100 | > 100 | > 100 | > 100 | > 100 | > 100 | > 100 | > 100 | > 100 | > 100 | 90.7 | > 100 |
| CC(=O)OCC1OC(n2c(N)c(C#N)c(-c3cccc(Cl)c3)c(C#N)c2=S)C(OC(C)=O)C(OC(C)=O)C1OC(C)=O (stereo not drawn) | 27.7 | > 100 | > 100 | > 100 | 30.1 | 51.5 | 45.2 | 96.4 | > 100 | > 100 | 22 | > 100 | 39.9 | 52 | 91.5 |
| Nc1ccccc1OCCCOc1ccccc1N | > 100 | > 100 | > 100 | > 100 | > 100 | > 100 | > 100 | > 100 | > 100 | > 100 | > 100 | > 100 | > 100 | > 100 | > 100 |
| CC1=CC(=O)/C(=C/n2c(=S)[nH]c3cc(C)ccc32)C(=O)O1 | > 100 | > 100 | > 100 | > 100 | > 100 | > 100 | > 100 | > 100 | > 100 | > 100 | > 100 | > 100 | > 100 | > 100 | > 100 |
| COC1=CC(=O)c2nc3ccccc3c3ccnc1c23 | 13.3 | > 45.1 | 2.95 | 25.1 | 22.7 | 13 | 21.8 | 51.3 | > 44.8 | > 50.2 | 16.2 | 13.8 | > 53.3 | 10.7 | > 47 |
| OC1(c2ccc(Cl)cc2)c2c(c3ccccc3c3ccccc23)C2=NCCN21 (stereo not drawn) | 24.5 | 44.7 | 32 | 18.2 | 73.8 | > 100 | 36.7 | 25.5 | 24.2 | 24.6 | 24.7 | > 100 | 28.5 | > 100 | 18.6 |
| COc1cc([C@@H]2c3cc4c(cc3[C@@H](c3c(O)cc(O)c5c3O[C@H](c3ccc(O)c(O)c3)[C@H](OC(=O)c3cc(O)c(O)c(O)c3)C5)[C@H]3COC(=O)[C@H]23)OCO4)cc(OC)c1O | 60.1 | > 100 | > 100 | > 100 | > 100 | > 100 | > 100 | > 100 | > 100 |  | > 100 | 59 | > 100 | 56.3 | > 100 |
